Measured values taken from patent US20110171714A1, “CRYSTAL STRUCTURE OF TAK1-TAB1” (VERTEX PHARMACEUTICALS INCORPORATED, priority 2005, published 2011).

T1: TAK1 kinase domain (residues I31-Q303) of human transforming growth factor-beta-activated kinase 1, as part … (human, UniProt O43318 31-303)
T1 construct: range 31-303; In the crystal this domain is not a separate chain; Its C-terminus (Q303) is fused directly, without linker, to TAB1 H468-P504, giving one polypeptide; It was expressed in baculovirus/Hi5 cells and is unphosphorylated; The N-terminal His6 tag was removed by thrombin; also called TAK1 catalytic kinase domain
T1 sequence (looked up): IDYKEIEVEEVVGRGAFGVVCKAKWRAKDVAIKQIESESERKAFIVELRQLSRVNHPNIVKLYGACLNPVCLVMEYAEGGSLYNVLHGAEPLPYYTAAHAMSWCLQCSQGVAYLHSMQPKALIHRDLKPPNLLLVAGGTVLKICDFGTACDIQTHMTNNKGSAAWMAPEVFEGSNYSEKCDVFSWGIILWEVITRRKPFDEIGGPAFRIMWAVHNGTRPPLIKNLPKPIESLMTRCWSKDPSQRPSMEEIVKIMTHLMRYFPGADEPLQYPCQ


How the values were obtained:
[1] = tested on: picryl chloride-induced ear swelling; settings: picryl chloride-induced ear swelling mouse model; cited from earlier work
[2] = target: T1, TAK1 kinase domain (residues I31-Q303) …; experiment: X-ray crystal structure of the TAK1(I31-Q303)/TAB1(H468-P504) chimera (both parts in one fused chain)

Molecule | effect on inflammation [1] | binding result [2]
COc1cc(O)c2c(c1)/C=C/C[C@H](O)[C@H](O)C(=O)/C=C\C[C@H](C)OC2=O [5Z-7-oxozeaenol] | relieves inflammation | –
HSLPPGEDGRVEPYVDFAEFYRLWSVDHGEQSVVTAP (peptide, UniProt Q15750 468-504, looked up, range 468-504; In the crystal this segment is not a separate chain; It is fused directly to the C-terminus of TAK1 I31-Q303; also called Tab1 peptide) | – | binds
